Values joined by “and” are separate entries in the source; they are usually repeats but may differ in a detail not shown here. Equal entries are not always repeated. “Also recorded” adds a separate entry of the source. Where two headings read alike, the source gives them in different places.
Legend:
[1] = tested on: maximal electroshock seizures (MES);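 on animals with anti-MES activity at 5 mg/kg: seizures induced by corneal electroshock, 60-cycle alternating current at 50 mA for 0.2 s, protection means no hind limb tonic extension, scored right after the shock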;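 on safety ratio (SR=TD3/ED97), MES test: seizures induced by corneal electroshock, 60-cycle alternating current at 50 mA for 0.2 s, protection means no hind limb tonic extension, scored right after the shock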
Method: The preliminary screening was done at doses of the test compounds from 30 mg/kg up to 600 mg/kg adminstered ip in mice and evaluated against maximal electroshock seizures (MES) and subcutaneous Metrazole (scMet) induced convulsions and in the rotorod test for neurologic deficit.
(§1) All tests were performed using male Carworth Farms number-one mice. Test solutions of all compounds were prepared in 30% polyethylene glycol 400 and animals were dosed intraperitoneally (ip) at 30 minutes prior to testing.
Maximal electroshock seizures (MES) were elicited with a 60 cycle alternating current of 50 mA intensity delivered for 0.2 second via corneal electrodes. A drop of 0.9% saline was instilled in the eye prior to application of electrodes. The animals were examined and evaluated immediately after the electroshock for the occurrence of clonic, flexor tonic, or extensor tonic convulsions or death. Abolition of the hind limb tonic extension component of the seizure was defined as protection in the MES test. The ED50 was determined for the test compound as the dose which inhibited the occurrence of hind limb tonic convulsions in one half of the animals immediately after the electroshock as determined by graphical interpolation.
(§2) Neurological deficit was measured in mice using the rotorod test. The dosed animal was placed on a 1-inch diameter knurled plastic rod rotating at 6 rpm. Neurologic toxicity was defined as the failure of the animal to remain on the rod for 1 minute. The median anticonvulsant protency (ED50) and toxicity (TD50) were determined by the graphical method.

[2] = tested on: maximal electroshock seizures (MES); conditions: cited from earlier work;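 on animals with anti-MES activity at 5 mg/kg: seizures induced by corneal electroshock, 60-cycle alternating current at 50 mA for 0.2 s, protection means no hind limb tonic extension, scored right after the shock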;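 on safety ratio (SR=TD3/ED97), MES test: seizures induced by corneal electroshock, 60-cycle alternating current at 50 mA for 0.2 s, protection means no hind limb tonic extension, scored right after the shock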
[3] = tested on: subcutaneous Metrazole (scMet) induced convulsions; conditions: cited from earlier work
[4] = tested on: subcutaneous Metrazole (scMet) induced convulsions; test: Subcutaneous pentylenetetrazole (Metrazol) seizure threshold test (scMet) in mice, ip; conditions: for minimal effective dose / ED50: Mus musculus; for ED50: read-out: scMET ED50
Method: Protection in this test was defined as a failure to observe a single episode of clonic spasms of at least 5 second duration during a 30 minute period following adminstration of the test compound.

[5] = tested on: convulsions induced by sc bicuculline; test: sc bicuculline induced seizures in mice; format: in vivo; conditions: doses up to 30 mg/kg
[6] = tested on: convulsions induced by sc picrotoxin; test: sc picrotoxin induced seizures in mice; format: in vivo; conditions: doses up to 30 mg/kg
[7] = tested on: convulsions induced by sc strychnine; test: sc strychnine induced seizures in mice; format: in vivo; conditions: doses up to 30 mg/kg
[8] = tested on: neurologic deficit (rotorod); conditions: mouse, in vivo
Method: as §1, §2

in vivo [9] = conditions: mouse, ip
Method: as §1

[10] = tested on: neurologic deficit (rotorod); test: Rotorod test for neurologic deficit in mice, ip
Method: as §1, §2

in vivo [11] = conditions: mouse, ip; remark: listed apart in the source
Method: as §1, §2

[12] = man; cited from earlier work
[13] = ip, 0.5 h, read-out: scMet activity, 30 min
[14] = ip, 4 h, read-out: scMet activity, 4 hrs
[15] = previous studies by Clark et al.

## CC(NC(=O)c1ccc(N)cc1)c1ccccc1 (stereo not drawn) [Compound 14]
[1]; mouse, in vivo, ip
  safety ratio (SR=TD3/ED97), MES test: 3.5
ip, mice
  lethal dose (LD50): 718.18 mg/kg
[2]; Clark et al, ip, mice
  MES ED50: 18.02 mg/kg
  MES PI (TD50/ED50): 9.50
[3]; Clark et al, ip, mice
  scMET ED50: 41.78 mg/kg
  scMET PI (TD50/ED50): 4.10

## Cc1cccc(C)c1NC(=O)c1ccc(N)cc1 [Example 1, 4-Amino-N-(2,6-dimethylphenyl) benzamide]
[4]; 30 minutes, ip, mice
  anti-scMet activity (in words), 30 min: No anti-scMet activity
[4]; 4 hours, ip, mice
  anti-scMet activity (in words), 4 hours: No anti-scMet activity
[4]; [13]
  minimal effective dose: > 300 mg/kg
[4]; [14]
  minimal effective dose: > 300 mg/kg
[4]; doses up to 30 mg/kg, mice
  effect against convulsions induced by sc metrazole: ineffective
[4]; ip, mice
  anti-scMet activity (in words): absent
[5]
  effect against convulsions induced by sc bicuculline: ineffective
[6]
  effect against convulsions induced by sc picrotoxin: ineffective
[7]
  effect against convulsions induced by sc strychnine: ineffective
[1]; 5 mg/kg, 30 minutes, ip
  animals with anti-MES activity at 5 mg/kg: 4 of 4
[1]; ip, mice
  animals with anti-MES activity at 30 mg/kg: all aminals
  MES ED50: 2.60 mg/kg and 2.6 mg/kg
  anti-MES / anticonvulsant activity (in words): good anti-MES activity; also recorded: most potent amide of PABA observed thus far; also recorded: greater potency than any of the prototype anticonvulsant
[1]; 4 hours after ip administration, mice
  anti-MES activity, active dose, 4 hours: 30 mg/kg
[1]; mice
  increase in anti-MES activity over compound 14: ~10 fold
  time of peak effect for anti-MES activity: 30 min
[1]; mouse, in vivo, ip
  PI values (in words): higher PI values
[8]
  animals with rotorod toxicity at 20 mg/kg: 3 of 4
  animals with rotorod toxicity at 30 mg/kg: all aminals
  increase in toxicity over compound 14: ~10 fold
  time of peak effect for toxicity: 30 min
[8]; ip, 30 min
  rotorod toxicity, dose, 30 min: 30 mg/kg
[8]; ip, 240 min
  rotorod toxicity, dose, 4 hours: 100 mg/kg
2×TD50 and 4×TD50, ip, mice
  additional toxicity at higher doses: muscle relaxation, loss of righting reflex, decreased respiration with cyanosis and ptosis
TD50 dose, ip, mice
  toxicity induced by the TD50 dose: decreased motor activity, spasticity, ataxia, rotorod toxicity and sedation
mouse, in vivo, ip
  time after which all symptoms had disappeared: ≤ 2 h
In vivo [9]
  LD50: 161 mg/kg
  TD50: 43.8 mg/kg
[10]
  toxicity (in words): most toxic

## Nc1ccc(C(=O)Nc2ccccc2)cc1 [Example 2]
[4]; [13]
  minimal effective dose: 100 mg/kg
[4]; [14]
  minimal effective dose: > 600 mg/kg
[4]; ip, mice
  scMET PI (protective index = TD50/ED50): 1.88
[1]; mouse, in vivo, ip
  MES PI (protective index = TD50/ED50): 2.20
[2]; [15]
  activity against MES induced convulsions (dose range): ~50 mg/kg
[3]; [15]
  activity against scMet induced convulsions (dose range): ~50 mg/kg

## Cc1ccccc1NC(=O)c1ccc(N)cc1 [Example 3, 4-amino-N-(2-methylphenyl) benzamide]
[4]; [13]
  minimal effective dose: > 300 mg/kg
[4]; [14]
  minimal effective dose: > 300 mg/kg
In vivo [9]
  LD50: < 600 mg/kg

## Cc1cccc(NC(=O)c2ccc(N)cc2)c1 [Example 4]
[4]; [13]
  minimal effective dose: 300 mg/kg
[4]; [14]
  minimal effective dose: > 600 mg/kg
[4]; ip
  ED50: 87.9 mg/kg
[4]; ip, mice
  scMET PI (protective index = TD50/ED50): 1.62
[1]; ip, mice
  MES ED50: 46.96 mg/kg
  difference between the dosages producing toxicity and anti-MES activity: appreciable difference between the dosages producing toxicity and anti-MES activity
[1]; mouse, in vivo, ip
  MES PI (protective index = TD50/ED50): 3.03
[8]; ip
  TD50: 142.51 mg/kg

## Cc1ccc(NC(=O)c2ccc(N)cc2)cc1 [Example 5, 4-amino-N-(4-methylphenyl) benzamide]
[4]; [13]
  minimal effective dose: 30 mg/kg
[4]; [14]
  minimal effective dose: > 600 mg/kg

## Cc1cccc(NC(=O)c2ccc(N)cc2)c1C [Example 6]
[4]; [13]
  minimal effective dose: 100 mg/kg
[4]; [14]
  minimal effective dose: > 300 mg/kg
[1]; ip, mice
  animals with anti-MES activity at 30 mg/kg: approximately half the animals
  MES ED50: 25.25 mg/kg
  PI values (in words): higher PI values
  anti-MES / anticonvulsant activity (in words): good anti-MES activity
[1]; mouse, in vivo, ip
  MES PI (protective index = TD50/ED50): 4.11
[8]; ip
  TD50: 103.90 mg/kg
In vivo [9]
  LD50: < 600 mg/kg

## Cc1ccc(NC(=O)c2ccc(N)cc2)c(C)c1 [Example 7]
[4]; [13]
  minimal effective dose: 600 mg/kg
[4]; [14]
  minimal effective dose: > 600 mg/kg
[1]; ip, mice
  anti-MES / anticonvulsant activity (in words): good anti-MES activity

## Cc1ccc(C)c(NC(=O)c2ccc(N)cc2)c1 [Example 8]
[4]; [13]
  minimal effective dose: 300 mg/kg
[4]; [14]
  minimal effective dose: > 600 mg/kg
[1]; ip, mice
  anti-MES / anticonvulsant activity (in words): good anti-MES activity

## Cc1ccc(NC(=O)c2ccc(N)cc2)cc1C [Example 9]
[4]; [13]
  minimal effective dose: 300 mg/kg
[4]; [14]
  minimal effective dose: 300 mg/kg
[4]; ip
  ED50: 80.8 mg/kg
[1]; ip, mice
  MES ED50: 42.31 mg/kg
  PI values (in words): higher PI values
  anti-MES / anticonvulsant activity (in words): good anti-MES activity
[1]; mouse, in vivo, ip
  MES PI (protective index = TD50/ED50): 4.59
[8]; ip
  TD50: 194.14 mg/kg

## Cc1cc(C)cc(NC(=O)c2ccc(N)cc2)c1 [Example 10]
[4]; [13]
  minimal effective dose: > 600 mg/kg
[4]; [14]
  minimal effective dose: > 600 mg/kg
[1]; ip, mice
  anti-MES / anticonvulsant activity (in words): good anti-MES activity

## CC(C)c1ccccc1NC(=O)c1ccc(N)cc1 [Example 11]
[4]; [13]
  minimal effective dose: 600 mg/kg
[1]; ip, mice
  MES ED50: 81.52 mg/kg
  PI values (in words): highest PI values
[1]; mouse, in vivo, ip
  MES PI (protective index = TD50/ED50): 8.70
[8]; ip
  TD50: 708.98 mg/kg

## Cc1cccc(C(C)C)c1NC(=O)c1ccc(N)cc1 [Example 12]
[4]; [13]
  minimal effective dose: > 600 mg/kg
[4]; [14]
  minimal effective dose: > 600 mg/kg
[1]; ip, mice
  MES ED50: 86.13 mg/kg
  PI values (in words): highest PI values
  anti-MES / anticonvulsant activity (in words): more potent
[1]; mouse, in vivo, ip
  MES PI (protective index = TD50/ED50): > 17.42
[8]
  rotorod toxicity at 600 mg/kg: no rotorod toxicity
[8]; ip
  TD50: > 1500.0 mg/kg
In vivo [11]
  TD50: 1500 to 2000 mg/kg

## CCc1cccc(C(C)C)c1NC(=O)c1ccc(N)cc1 [Example 13]
[4]; [13]
  minimal effective dose: 300 mg/kg
[4]; [14]
  minimal effective dose: > 600 mg/kg
[1]; ip, mice
  MES ED50: 16.67 mg/kg
  anti-MES / anticonvulsant activity (in words): more potent
[1]; mouse, in vivo, ip
  MES PI (protective index = TD50/ED50): 2.95
[8]; ip
  TD50: 49.10 mg/kg
In vivo [9]
  LD50: < 600 mg/kg
[10]; 30 mg/kg
  animals with rotorod toxicity at 30 mg/kg: 1 out of 4

## Cc1cccc(C)c1NC(=O)c1cccc(N)c1 [II-1, 3-amino-N-(2,6-dimethylphenyl) benzamide]
[1]; ip, mice
  MES ED50: 13.48 mg/kg
[1]; mouse, in vivo, ip
  MES PI (protective index = TD50/ED50): 21.11
In vivo [11]
  TD50: 285 mg/kg

## CCC1(c2ccccc2)C(=O)NC(=O)NC1=O [Phenobarbital, reference compound]
[4]; ip
  ED50: 13.2 mg/kg
[1]; ip, mice
  MES ED50: 21.78 mg/kg
ip, mice
  lethal dose (LD50): 264.70 mg/kg

## O=C1NC(=O)C(c2ccccc2)(c2ccccc2)N1 [Phenytoin]
[12]
  plasma level at which ataxia is obvious: 30000 ng/mL
  plasma level at which lethargy is apparent: about 40 mcg/ml
  plasma level at which nystagmus is seen: around 20 mcg/ml
  plasma level controlling seizures: ≥ 10 µg/mL

## CCCC(CCC)C(=O)O [Valproic Acid, reference compound]
[4]; ip
  ED50: 149 mg/kg
In vivo [9]
  LD50: 1100 mg/kg
